Experiments:
lymphome L5178Y = assay: Antitumour activity in the L5178Y lymphoma model, survival; assay type: in vivo; conditions: days 1,2,3,4,5; for Nombre d'animaux survivants: at 120 days
Description: L'activité antitumorale du DAH a été aussi étudiée sur deux autres modèles murins : le lymphome L5178Y et la leucémie P388.
Les cellules de lymphome murin (L5178Y) sont maintenues par passages intrapéritonéaux successifs chez la souris DBA/2 et injectées, pour les essais, à la dose de […] par souris.

[1] = Stability of DAH versus pH and temperature over one month (colorimetric assay of the hydroxamate function); assay type: physicochemical; conditions: for Pourcentage de dégradation du DAH sur une période de 30 jours: 30 days
Experimental: La fonction hydroxamate du DAH est mise en évidence par un complexe Fe3+-hydroxamate qui donne une coloration rouge-violet, quantifiée par méthode colorimétrique à 550 nm, à l'aide d'un spectrophotomètre de type Beckman DU 70.
La stabilité du DAH en fonction du pH et de la température a été déterminée sur une durée d'un mois par dosage colorimétrique spécifique de la fonction hydroxamate. Les résultats du tableau ci-après montrent que dans l'eau le DAH est stable jusqu'à une température de 50°C. Une dégradation significative du produit n'est constatée que dans des conditions extrêmes de pH, comme l'illustre le Tableau 1 ci-après. Tableau 1

## N[C@@H](CC(=O)NO)C(=O)O [DAH, D-acide aspartique β-hydroxamate]
Lymphome L5178Y; 1 g/kg x 3/j
  T/Cx100: 576%
  Nombre d'animaux survivants: 5/5
Lymphome L5178Y; 1 g/kg x 4/j
  T/Cx100: 576%
  Nombre d'animaux survivants: 5/5
[1]; HCl 0,1 N, + 4 °C
  Pourcentage de dégradation du DAH sur une période de 30 jours: 42%
[1]; HCl 0,1 N, + 25 °C
  Pourcentage de dégradation du DAH sur une période de 30 jours: 78%
[1]; HCl 0,1 N, + 50 °C
  Pourcentage de dégradation du DAH sur une période de 30 jours: 100%
[1]; H₂O, + 4 °C
  Pourcentage de dégradation du DAH sur une période de 30 jours: 0%
[1]; H₂O, + 25 °C
  Pourcentage de dégradation du DAH sur une période de 30 jours: 0%
[1]; H₂O, + 50 °C
  Pourcentage de dégradation du DAH sur une période de 30 jours: 0%
[1]; NaOH 0,1 N, + 4 °C
  Pourcentage de dégradation du DAH sur une période de 30 jours: 4%
[1]; NaOH 0,1 N, + 25 °C
  Pourcentage de dégradation du DAH sur une période de 30 jours: 36%
[1]; NaOH 0,1 N, + 50 °C
  Pourcentage de dégradation du DAH sur une période de 30 jours: 100%
[1]; in water, up to 50°C, one month
  Stabilité du DAH: stable
